From patent US20040136926A1, “Intra-oral drug delivery system” (priority 2002, published 2004)
Where a SMILES comes first, the peptide text is derived from it. Bridges are numbered along the chain shown (N, C = ends). Roman numbers before positions name the chains, in order. Where no end group is shown, it is not given here. [ ]: non-standard residue; d: D form. pS = N[C@@H](COP(=O)(O)O)C(=O)O

What was measured:
Candida albicans = assay: Fungicidal activity of hybrid adsorbed HAP beads, fluorescent probes (membrane damage); assay type: cell-based; conditions: hybrid adsorbed HAP surface, as a function of time
Protocol: (§1) The fungicidal and bactericidal activity of the hybrid adsorbed HAP beads was determined using fluorescent probes. The increase in fluorescence as a function of microbial membrane damage was monitored. […] Candida albicans and Actinobacillus actinomycetemcomitans were used as the fungal and bacterial organisms, respectively.

[1] = test system: Actinobacillus actinomycetemcomitans; assay: Bactericidal activity of hybrid adsorbed HAP beads, fluorescent probes (membrane damage); assay type: cell-based; conditions: hybrid adsorbed HAP surface, as a function of time
Protocol: as §1

[2] = Peptide adsorption to hydroxyapatite (HAP) beads; assay type: binding; conditions: for K × 10^−5 (affinity coefficient) / N × 10^6 (adsorption parameter): adsorption to HAP, C/Q = 1/KN + C/N
Description: The extent to which the hybrid molecule gets adsorbed was examined using hydroxyapatite (HAP) beads as described previously (Raj, et al., supra, 1992).

[3] = literature (Raj, et al., 1992); cited from earlier work

Molecule	Microbial membrane damage (increase in fluorescence) vs control HAP (Candida albicans)	Microbial membrane damage (increase in fluorescence) vs control HAP [1]	K × 10^−5 (affinity coefficient) [2]	N × 10^6 (adsorption parameter) [2]	Affinity for HAP (in words) ([2]; hydroxyapatite beads)	Affinity for HAP compared with whole statherin [3]
CC[C@H](C)[C@@H]1NC(=O)[C@H](CCCNC(=N)N)NC(=O)[C@@H](NC(=O)[C@H](CC(C)C)NC(=O)[C@@H](N)CCCNC(=N)N)CSSC[C@@H](C(=O)N[C@@H](CCCNC(=N)N)C(=O)OC[C@H](NC(=O)[C@H](CC(=O)O)NC(=O)[C@H](CC(=O)O)NC(=O)[C@H](CC(=O)O)NC(=O)[C@H](CCC(=O)O)NC(=O)[C@@H](N)CCC(=O)O)C(=O)O)NC(=O)[C@H](C(C)C)NC(=O)[C@H](CCCNC(=N)N)NC(=O)[C@H]([C@@H](C)CC)NC(=O)[C@H](C(C)C)NC(=O)[C@H](C(C)C)NC1=O [Hybrid] (I: H-RLCRIVVIRVCR / II: H-EEDDDS-OH; disulfide I:3-I:11; ester I:C-II:6; N-terminus assumed)	significantly caused microbial membrane damage	significantly caused microbial membrane damage	10.8 ± 1.8 liter mol^−1	1.6 ± 0.2 mol m^−2	quite comparable to salivary statherin	
D-D-D-E-E-K-F-L-R-R-I-G-R-F-G (DDDEEKFLRRIGRFG) [SNA15, Analog of SN15]						higher affinity for HAP than the whole molecule
D-Sp-Sp-E-E-K-F-L-R-R-I-G-R-F-G (D[pS][pS]EEKFLRRIGRFG; UniProt P02808 20-34, looked up, fragment) [SN15, Amino-terminal 15-residue fragment of statherin]						higher affinity for HAP than the whole molecule
D-Sp-Sp-EEKFLRRIGRFGYGYGPYQPVPEQPLYPQPYQPQYQQYTF (D[pS][pS]EEKFLRRIGRFGYGYGPYQPVPEQPLYPQPYQPQYQQYTF; UniProt P02808 20-62, looked up) [Statherin, Salivary phosphorylated polypeptide, reference compound]			11.1 ± 2.0 liter mol^−1	0.9 ± 0.05 mol m^−2		
